Experimental findings from ChEMBL document CHEMBL6182913, “Design of Potent Small-Molecule Stimulator of Interferon Gene Inhibitor and Stimulator of Interferon Gene Mutant-Specific Degrader” (J Med Chem, 2025) are described below.

Data set [1] has as its target T1, Stimulator of interferon genes protein (Homo sapiens, UniProt Q86WV6, G230A/R293Q/R71H). Kind of data set: Inhibition of cGAMP-induced STING HAQ mutant transfected in human THP1-Blue ISG cells preincubated with compound for 6 hrs followed by cGAMP addition and measured after 18 hrs by QUANTI-Blue based microplate reader analysis. In kind it is cell-based.
Data set [2] is described as follows: Cytotoxicity against human THP1-Blue ISG cells assessed as inhibition of cell growth at 10 uM incubated for 24 hrs by MTS assay relative to control. In kind it is toxicity, cell-based. On the technique in general: Tetrazolium dyes change colour on reduction, which living cells bring about.
In data set [3] the target is T1, Stimulator of interferon genes protein. Kind of data set: Inhibition of diABZI-induced STING HAQ mutant transfected in human THP1-Blue ISG cells preincubated with compound for 6 hrs followed by diABZI addition and measured after 18 hrs by QUANTI-Blue based microplate reader analysis. In kind it is cell-based.
Data set [4] has as its target T2, Stimulator of interferon genes protein (Homo sapiens, UniProt Q86WV6). In words: Inhibition of cGAMP-induced STING S154 mutant transfected in human THP-1 cells preincubated with compound for 6 hrs followed by cGAMP addition and measured after 18 hrs by QUANTI-Luc based microplate reader analysis. In kind it is cell-based.
Target sequence in this assay (Q86WV6 whole entry, looked up, change not shown): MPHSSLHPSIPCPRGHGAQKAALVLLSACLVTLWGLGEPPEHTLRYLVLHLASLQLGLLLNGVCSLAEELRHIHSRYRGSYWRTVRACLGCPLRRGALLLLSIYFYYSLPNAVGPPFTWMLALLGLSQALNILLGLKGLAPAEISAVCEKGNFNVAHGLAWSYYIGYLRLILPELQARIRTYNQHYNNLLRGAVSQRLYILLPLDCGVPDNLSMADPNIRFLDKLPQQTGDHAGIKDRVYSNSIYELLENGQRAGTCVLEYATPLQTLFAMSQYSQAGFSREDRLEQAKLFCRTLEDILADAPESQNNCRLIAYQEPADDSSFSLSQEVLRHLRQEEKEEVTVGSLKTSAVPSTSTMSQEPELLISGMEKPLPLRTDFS
Data set [5] addresses T3, Stimulator of interferon genes protein (Mus musculus) (UniProt Q3TBT3).
T3 sequence (whole entry): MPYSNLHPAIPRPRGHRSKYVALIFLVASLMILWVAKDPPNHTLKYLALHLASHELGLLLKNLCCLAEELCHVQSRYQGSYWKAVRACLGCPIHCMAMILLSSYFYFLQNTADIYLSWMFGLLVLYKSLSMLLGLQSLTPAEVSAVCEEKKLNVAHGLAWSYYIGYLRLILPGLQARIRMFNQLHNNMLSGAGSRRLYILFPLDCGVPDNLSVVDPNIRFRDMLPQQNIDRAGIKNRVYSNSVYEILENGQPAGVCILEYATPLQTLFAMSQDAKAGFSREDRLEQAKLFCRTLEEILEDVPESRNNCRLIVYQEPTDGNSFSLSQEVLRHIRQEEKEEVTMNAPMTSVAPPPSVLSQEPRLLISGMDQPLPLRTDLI
In words: Inhibition of STING in mouse BMDM cells assessed as inhibition of LPS-induced IFN-beta release at 0.05 to 0.5 uM pretreated with compound for 6 hrs followed by LPS addition and measured after 18 hrs by ELISA. The data set is classed as cell-based. The following applies: dose 0.05-0.5 µM, time 24.0 hrs. (An ELISA detects its analyte on a solid surface through an enzyme-linked reagent.)

Data set [6] concerns the target T2, Stimulator of interferon genes protein. Kind of data set: Inhibition of STING activation in human THP1-Blue ISG cells assessed as decrease in cGAMP-induced IRF3 phosphorylation at 0.1 to 1 uM preincubated with compound for 6 hrs followed by cGAMP addition and measured after 3 hrs by Western blotting analysis. In kind it is cell-based. The following applies: dose 0.1-1 µM, time 9.0 hrs.
Target sequence in this assay (Q86WV6 whole entry): as the sequence (Q86WV6 whole entry, looked up, change not shown) above

Data set [7] shares this target. Kind of data set: Inhibition of STING activation in human THP1-Blue ISG cells assessed as inhibition of c-GAMP-induced STING dimerization at 0.1 to 1 uM preincubated with compound for 6 hrs followed by cGAMP addition and measured after 3 hrs by Western blotting analysis. In kind it is cell-based. Conditions: dose 0.1-1 µM, time 9.0 hrs. Background: A western blot detects proteins with antibodies after separation by electrophoresis.
Target sequence in this assay (Q86WV6 whole entry): as the sequence (Q86WV6 whole entry, looked up, change not shown) above

Data set [8] relates to Stimulator of interferon genes protein (Homo sapiens), Q86WV6 [UNDEFINED MUTATION]. In words: Induction of STING S154 mutant degradation in human THP-1 cells at 1 uM incubated for 12 hrs by Western blotting analysis. In kind it is cell-based.
Data set [9] has the same test system. Kind of data set: Induction of STING M155 mutant degradation in human THP-1 cells at 1 uM incubated for 48 hrs by Western blotting analysis. The data set is classed as cell-based.
Data set [10] has the same test system. Kind of data set: Induction of STING M155 mutant degradation in human THP-1 cells at 0.5 uM preincubated with rapamycin for 2 hrs followed by compound addition and measured after 14 hrs by Western blotting analysis. In kind it is cell-based.
Data set [11] is described as follows: Metabolic stability in mouse liver microsomes assessed as half life at 10 uM in presence of NADPH by LC-MS/MS analysis. The data set is classed as ADME, Microsome.
Data set [12] has as its target T3, Stimulator of interferon genes protein (Mus musculus). In words: In vivo inhibition of cGAMP-induced STING activation in autoimmune disease female C57BL/6 mouse model assessed as decrease in cGAMP-induced serum INF-beta level at 10 mg/kg, sc pretreated with compound for 2 hrs followed by cGAMP addition and measured after 3 hrs by ELISA. The data set is classed as functional, organism-based.

Data set [13] can be described thus: Cmax in mouse at 20 mg/kg, po by LC-MS/MS analysis. The data set is classed as ADME, organism-based. The following applies: in vivo, po, 20 mg/kg.
A short description of data set [14]: Half life in mouse at 20 mg/kg, po by LC-MS/MS analysis. The following applies: in vivo. In kind it is ADME, organism-based.
In data set [15] the target is T3, Stimulator of interferon genes protein (Mus musculus). In words: In vivo inhibition of cGAMP-induced STING activation in autoimmune disease female C57BL/6 mouse model assessed as decrease in cGAMP-induced serum CXCL-10 level at 10 mg/kg, sc pretreated with compound for 2 hrs followed by cGAMP addition and measured after 3 hrs by ELISA. The data set is classed as functional, organism-based.

For orientation: IC50 means the concentration that gives 50% inhibition. For orientation: inhibition means the drop in the measured response relative to a control, in per cent. One may read the half-life as the time in which the quantity being followed falls by half. What is called Cmax is the peak of the concentration-time curve.

The source made the active and inactive calls. The rule behind the calls is not given here.

Stimulator of interferon genes protein (Homo sapiens), Q86WV6 [UNDEFINED MUTATION], sequence (Q86WV6 whole entry, looked up, change not shown): as the sequence (Q86WV6 whole entry, looked up, change not shown) above
T1 sequence (Q86WV6 whole entry R71H/G230A/R293Q): as the sequence (Q86WV6 whole entry, looked up, change not shown) above, with R71H, G230A, R293Q counted along it

As to `COc1ccc2c(c1)C(=O)N(c1ccc(C(C)(C)C)c(F)c1)C(c1cc3cc(-c4ccc(C(=O)Nc5ccc(O)c(NS(C)(=O)=O)c5)cc4)ccc3o1)C2C(N)=O` (stereo unspecified), the values for the IC50 in data set [1], in [3] and in data set [4] were 110 nM, 120 nM and 280 nM, respectively. In data set [2], the inhibition at 24 h, 10 µM was found to be 34.4%. For the same compound, the inhibition entry in data set [5] was “inactive”. In addition, the inhibition entry in data set [6], in [7], in data set [12] and in [15] was “Active” each time. Besides, the outcome in [8] and in [10] was Active. Besides, the Activity entry in data set [9] was “Active; Compound Showed Maximum Degradation”. Besides, in [11], the half-life at 10 µM is over 1 h. Besides, the peak concentration (Cmax) in data set [13] came out at 293 ng/mL; in data set [13] (read-out: Cmax) it was 200 nM. This compound also gave a half-life in [14] of 3.3 h.
